Measured values reported in paper PMC6825221, “In silico re-engineering of a neurotransmitter to activate KCNQ potassium channels in an isoform-specific manner” (Communications Biology, 2019).
“And” between values parts separate entries of the source, which are not always exact repeats. Equal entries are not always repeated.

Tests used:
KCNQ3* = KCNQ3* (Homo sapiens, UniProt O43525, A315T); set-up: method as in PMID 29748663; settings: cited from earlier work
KCNQ5 = KCNQ5 (Homo sapiens, UniProt Q9NR82); set-up: method as in PMID 29748663; settings: cited from earlier work
KCNQ2 = KCNQ2 (Homo sapiens, UniProt O43526); set-up: method as in PMID 30021858; settings: cited from earlier work
KCNQ3*-R242A = target: T1, KCNQ3*-R242A (Homo sapiens, UniProt O43525, A315T/R242A); test: TEVC of homomeric KCNQ3*-R242A; assay type: cell-based; settings: 100 µM
T1 sequence (O43525 1-872 R242A/A315T): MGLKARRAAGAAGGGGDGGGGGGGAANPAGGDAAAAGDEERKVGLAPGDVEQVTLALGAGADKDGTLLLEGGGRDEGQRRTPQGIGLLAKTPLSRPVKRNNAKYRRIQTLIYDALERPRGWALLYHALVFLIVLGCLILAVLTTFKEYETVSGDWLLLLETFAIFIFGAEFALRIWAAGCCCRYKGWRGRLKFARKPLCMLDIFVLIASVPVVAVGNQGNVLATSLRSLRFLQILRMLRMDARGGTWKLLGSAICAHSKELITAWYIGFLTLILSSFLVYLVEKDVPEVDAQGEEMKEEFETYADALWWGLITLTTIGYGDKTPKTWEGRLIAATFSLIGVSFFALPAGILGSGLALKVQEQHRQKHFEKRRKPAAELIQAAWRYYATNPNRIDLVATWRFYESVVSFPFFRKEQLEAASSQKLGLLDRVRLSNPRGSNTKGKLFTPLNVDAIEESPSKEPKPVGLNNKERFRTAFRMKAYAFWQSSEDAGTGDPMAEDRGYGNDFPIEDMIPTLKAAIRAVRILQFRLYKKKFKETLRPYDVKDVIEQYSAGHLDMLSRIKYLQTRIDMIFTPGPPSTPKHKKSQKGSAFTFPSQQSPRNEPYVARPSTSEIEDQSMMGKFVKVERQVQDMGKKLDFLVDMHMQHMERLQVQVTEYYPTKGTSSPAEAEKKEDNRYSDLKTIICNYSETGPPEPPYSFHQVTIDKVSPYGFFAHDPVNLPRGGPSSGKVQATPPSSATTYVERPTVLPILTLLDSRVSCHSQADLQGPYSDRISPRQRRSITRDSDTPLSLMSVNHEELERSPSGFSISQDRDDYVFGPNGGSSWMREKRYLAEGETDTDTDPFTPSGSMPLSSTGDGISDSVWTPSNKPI
Excerpt: We generated cRNA transcripts encoding human KCNQ1, KCNQ2, KCNQ3, KCNQ4, KCNQ5 or GLRA1 (NM_001146040) (GenScript, Piscataway, NJ, USA) by in vitro transcription using the T7 polymerase mMessage mMachine kit (Thermo Fisher Scientific), after vector linearization, from cDNA sub-cloned into plasmids incorporating Xenopus laevis β-globin 5′ and 3′ UTRs flanking the coding region to enhance translation and cRNA stability. We quantified cRNA by spectrophotometry. We generated mutant KCNQ2 and KCNQ3 cDNAs by site-directed mutagenesis using a QuikChange kit (Stratagene, San Diego, CA) and prepared the corresponding cRNAs as above. […]
We performed TEVC at room temperature using an OC-725C amplifier (Warner Instruments, Hamden, CT) and pClamp10 software (Molecular Devices, Sunnyvale, CA) 2–5 days after cRNA injection as described in the section above. […] Currents were recorded in response to voltage pulses between −120 or −80 mV and + 40 mV at 20 mV intervals from a holding potential of −80 mV, to yield current-voltage relationships, current magnitude, and for quantifying activation rate. We analyzed data using Clampfit (Molecular Devices) and Graphpad Prism software (GraphPad, San Diego, CA, USA); values are stated as mean ± SEM. […]

KCNQ2/3 = KCNQ2/3 (Homo sapiens, UniProt O43525+O43526); test: TEVC of KCNQ2/3 channels expressed in Xenopus oocytes; assay type: cell-based; settings: EC50, KCNQ2/3 activation, shift in voltage dependence of activation (ΔV0.5act), TEVC in oocytes
Excerpt: We generated cRNA transcripts encoding human KCNQ1, KCNQ2, KCNQ3, KCNQ4, KCNQ5 or GLRA1 (NM_001146040) (GenScript, Piscataway, NJ, USA) by in vitro transcription using the T7 polymerase mMessage mMachine kit (Thermo Fisher Scientific), after vector linearization, from cDNA sub-cloned into plasmids incorporating Xenopus laevis β-globin 5′ and 3′ UTRs flanking the coding region to enhance translation and cRNA stability. We quantified cRNA by spectrophotometry. […] We injected defolliculated stage V and VI Xenopus laevis oocytes (Ecocyte Bioscience, Austin, TX and Xenoocyte, Dexter, MI) with KCNQ channel α subunit (5-20 ng) or GLRA1 (20 ng) cRNAs. We incubated the oocytes at 16 °C in Barth’s saline solution (Ecocyte Bioscience) containing penicillin and streptomycin, with daily washing, for 2–5 days prior to two-electrode voltage-clamp (TEVC) recording.
For recording, oocytes were placed in a small-volume oocyte bath (Warner) and viewed them with a dissection microscope. Chemicals were sourced from Sigma, Matrix Scientific and Santa Cruz. […] All stock solutions were diluted in bath solution on the day of experiments. KCNQ2/3 channel activation was screened for using either 30 µM or 100 µM concentrations of each of the six compounds, then dose responses were conducted as appropriate. Bath solution was (in mM): 96 NaCl, 4 KCl, 1 MgCl2, 1 CaCl2, 10 HEPES (pH 7.6). Compounds were introduced into the oocyte recording bath by gravity perfusion at a constant flow of 1 ml per minute for 3 min prior to recording. Pipettes were of 1–2 MΩ resistance when filled with 3 M KCl. Currents were recorded in response to voltage pulses between −120 or −80 mV and + 40 mV at 20 mV intervals from a holding potential of −80 mV, to yield current-voltage relationships, current magnitude, and for quantifying activation rate. We analyzed data using Clampfit (Molecular Devices) and Graphpad Prism software (GraphPad, San Diego, CA, USA); values are stated as mean ± SEM. We plotted raw or normalized tail currents versus prepulse voltage and fitted with a single Boltzmann function:1 g=(A1−A2)/1+exp(V12−V)∕VS+A2, where g is the normalized tail conductance, A1 is the initial value at −∞, A2 is the final value at +∞, V1/2 is the half-maximal voltage of activation and Vs the slope factor. Activation, deactivation, wash-in and washout kinetics were fitted with single exponential functions to yield a τ value.

KCNQ1 = KCNQ1 (Homo sapiens, UniProt P51787); settings: cited from earlier work

Chain of KCNQ2/3 (O43525 whole entry): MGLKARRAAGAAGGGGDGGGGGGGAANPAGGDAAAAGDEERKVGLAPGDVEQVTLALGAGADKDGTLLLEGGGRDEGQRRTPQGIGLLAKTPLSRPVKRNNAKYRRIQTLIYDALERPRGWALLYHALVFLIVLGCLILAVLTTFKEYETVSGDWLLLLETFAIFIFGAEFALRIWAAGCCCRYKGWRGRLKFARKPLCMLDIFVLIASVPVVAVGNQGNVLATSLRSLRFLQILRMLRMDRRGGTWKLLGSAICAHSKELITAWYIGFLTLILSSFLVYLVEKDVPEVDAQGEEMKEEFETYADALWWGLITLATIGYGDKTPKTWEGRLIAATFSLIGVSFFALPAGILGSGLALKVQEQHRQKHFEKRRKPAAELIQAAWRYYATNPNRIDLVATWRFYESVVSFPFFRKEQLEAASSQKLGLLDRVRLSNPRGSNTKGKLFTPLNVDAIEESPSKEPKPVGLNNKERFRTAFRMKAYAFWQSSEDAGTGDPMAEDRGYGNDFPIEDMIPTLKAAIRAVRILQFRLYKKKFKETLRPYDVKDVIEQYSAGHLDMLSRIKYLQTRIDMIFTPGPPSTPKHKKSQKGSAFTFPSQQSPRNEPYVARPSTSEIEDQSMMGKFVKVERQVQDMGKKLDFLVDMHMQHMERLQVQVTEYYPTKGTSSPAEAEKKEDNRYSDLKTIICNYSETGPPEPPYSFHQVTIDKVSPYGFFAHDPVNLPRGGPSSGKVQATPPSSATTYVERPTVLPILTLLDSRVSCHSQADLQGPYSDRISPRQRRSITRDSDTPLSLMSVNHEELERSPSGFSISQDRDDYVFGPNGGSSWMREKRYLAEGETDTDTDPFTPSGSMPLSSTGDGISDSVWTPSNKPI
Chain of KCNQ2/3 (O43526 whole entry): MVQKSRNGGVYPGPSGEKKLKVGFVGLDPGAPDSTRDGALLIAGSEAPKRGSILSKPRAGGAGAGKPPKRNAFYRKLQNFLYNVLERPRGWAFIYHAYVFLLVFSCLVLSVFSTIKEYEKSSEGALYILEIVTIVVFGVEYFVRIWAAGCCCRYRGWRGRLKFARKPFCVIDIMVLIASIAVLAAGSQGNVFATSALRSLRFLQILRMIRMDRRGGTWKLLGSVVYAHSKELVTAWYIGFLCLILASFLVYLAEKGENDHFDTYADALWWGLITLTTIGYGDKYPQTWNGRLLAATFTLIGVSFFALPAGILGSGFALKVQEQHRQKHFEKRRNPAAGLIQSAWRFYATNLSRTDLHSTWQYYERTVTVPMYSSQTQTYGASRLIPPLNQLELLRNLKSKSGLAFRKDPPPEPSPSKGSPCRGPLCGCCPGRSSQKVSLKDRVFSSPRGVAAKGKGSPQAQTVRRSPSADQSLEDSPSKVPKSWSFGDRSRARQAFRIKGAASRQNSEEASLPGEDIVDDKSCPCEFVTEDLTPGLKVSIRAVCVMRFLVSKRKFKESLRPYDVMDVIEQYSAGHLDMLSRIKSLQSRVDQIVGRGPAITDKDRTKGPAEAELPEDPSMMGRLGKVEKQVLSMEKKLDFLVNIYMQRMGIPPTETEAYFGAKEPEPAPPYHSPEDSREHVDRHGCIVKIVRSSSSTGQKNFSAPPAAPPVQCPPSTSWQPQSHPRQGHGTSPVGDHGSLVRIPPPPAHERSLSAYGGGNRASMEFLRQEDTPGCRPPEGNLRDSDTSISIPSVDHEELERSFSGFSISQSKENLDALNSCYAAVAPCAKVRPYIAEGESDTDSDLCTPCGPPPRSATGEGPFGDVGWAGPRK

SMILES	activation of KCNQ3 (KCNQ3*)	activation of KCNQ5 (KCNQ5)	activation of KCNQ2 (KCNQ2)	effect on nonfunctional KCNQ3*-R242A (KCNQ3*-R242A)	EC50 (KCNQ2/3)	activation of KCNQ1 (KCNQ1)
NCC1(CC(=O)O)CCCCC1 [gabapentin]	activate only KCNQ3 and KCNQ5	activate only KCNQ3 and KCNQ5	not KCNQ2			
CCOC(=O)Nc1ccc(NCc2ccc(F)cc2)cc1N [retigabine, reference compound]				awakened neither by 3FMSG nor retigabine	6.9 µM and 6.87 µM	does not activate KCNQ1
